Values after ≈ are worked out from the molar mass of the structure shown. Values belong to the compound of their own block, whether it stands above or below them. Active and inactive are the calls of the source. No cut-off for these calls is given here.
Legend:
[1] = Volume of distribution in CD-1 mouse at 2 mg/kg, iv; type: ADME, organism-based; conditions: CD-1, mouse, in vivo, read-out: Vd
[2] = Clearance in CD-1 mouse at 2 mg/kg, iv; type: ADME, organism-based; conditions: in vivo
[3] = Half life in CD-1 mouse at 2 mg/kg, iv; type: ADME, organism-based; conditions: CD-1, mouse, in vivo
[4] = AUC (0 to 24 hrs) in CD-1 mouse at 2 mg/kg, iv; type: ADME, organism-based; conditions: CD-1, mouse, in vivo
[5] = Selectivity index, ratio of IC50 for inhibition of CDK1 (unknown origin) to IC50 for inhibition of CDK9 (unknown origin)
[6] = Selectivity index, ratio of IC50 for inhibition of CDK2 (unknown origin) to IC50 for inhibition of CDK9 (unknown origin)
MV4-11 [7] = test: Antiproliferative activity against human MV4-11 cells assessed as cell viability; type: functional, cell-based
[8] = target: Cyclin-dependent kinase 1 (Homo sapiens, UniProt P06493); test: Inhibition of CDK1 (unknown origin)
Cyclin-dependent kinase 1, sequence (P06493 whole entry): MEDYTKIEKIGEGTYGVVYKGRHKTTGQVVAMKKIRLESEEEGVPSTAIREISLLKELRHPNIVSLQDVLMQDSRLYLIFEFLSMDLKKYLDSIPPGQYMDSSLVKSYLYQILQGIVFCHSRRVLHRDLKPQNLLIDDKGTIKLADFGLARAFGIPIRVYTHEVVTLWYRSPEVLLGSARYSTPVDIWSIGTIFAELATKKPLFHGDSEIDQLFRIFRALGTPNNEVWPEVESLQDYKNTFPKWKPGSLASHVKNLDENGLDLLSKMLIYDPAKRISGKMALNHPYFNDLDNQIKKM

[9] = target: Cyclin-dependent kinase 2 (Homo sapiens, UniProt P24941); test: Inhibition of CDK2 (unknown origin)
[10] = target: Cyclin-dependent kinase 9 (Homo sapiens, UniProt P50750); test: Inhibition of CDK9 (unknown origin)
Cyclin-dependent kinase 9, sequence (P50750 whole entry): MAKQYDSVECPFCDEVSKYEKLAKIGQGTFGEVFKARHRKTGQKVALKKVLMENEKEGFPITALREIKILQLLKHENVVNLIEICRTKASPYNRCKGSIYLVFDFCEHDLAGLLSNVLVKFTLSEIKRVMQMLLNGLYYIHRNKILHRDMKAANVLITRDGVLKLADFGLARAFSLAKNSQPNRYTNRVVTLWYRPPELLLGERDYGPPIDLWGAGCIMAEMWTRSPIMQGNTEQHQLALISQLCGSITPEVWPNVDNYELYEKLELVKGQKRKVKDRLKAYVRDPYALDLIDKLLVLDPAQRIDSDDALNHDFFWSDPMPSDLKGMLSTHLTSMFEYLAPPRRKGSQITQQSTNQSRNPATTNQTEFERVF

[11] = Aqueous solubility of compound at pH 4; type: physicochemical
MV4-11 [12] = test: Antitumor activity against human MV4-11 cells xenografted in mouse assessed as tumor growth inhibition at 10 mg/kg, iv measured upto 28 days; type: functional; conditions: MV4-11, 672 h, time <= 28 day, read-out: TGI
[13] = Toxicity in mouse assessed as change in body weight at 10 mg/kg, iv measured upto 28 days; type: organism-based; conditions: in vivo, 672 h, time < 28 day
MV4-11 [14] = test: Antitumor activity against human MV4-11 cells xenografted in iv dosed mouse assessed as reduction in pol II CTD level in tumor measured upto 24 hrs by Western blot analysis; type: functional, organism-based; conditions: dose 5-15 mg/kg
MV4-11 [15] = test: Antitumor activity against human MV4-11 cells xenografted in mouse assessed as reduction in MYC level in tumor at 5 to 15 mg/kg, iv measured upto 24 hrs by Western blot analysis; type: functional, organism-based; conditions: dose 5-15 mg/kg
MV4-11 [16] = test: Antitumor activity against human MV4-11 cells xenografted in mouse assessed as reduction in Mcl1 level in tumor at 5 to 15 mg/kg, iv measured upto 24 hrs by Western blot analysis; type: functional, organism-based; conditions: dose 5-15 mg/kg
MV4-11 [17] = test: Antitumor activity against human MV4-11 cells xenografted in mouse assessed as upregulation of caspase-3 level in tumor at 5 to 15 mg/kg, iv by Western blot analysis; type: functional, organism-based; conditions: dose 5-15 mg/kg, time <= 24.0 hrs
[18] = Plasma protein binding in human; type: ADME, cell-free; conditions: read-out: PPB (converted)
[19] = Permeability across apical to basolateral side in human Caco-2 cells; type: ADME, cell-based; conditions: read-out: permeability
[20] = Permeability across basolateral to apical side in human Caco-2 cells; type: ADME, cell-based; conditions: read-out: permeability
[21] = Efflux ratio of permeability basolateral to apical side over apical to basolateral side in human Caco-2 cells; type: ADME, cell-based
[22] = Metabolic stability in human hepatocytes assessed as half life; type: ADME, cell-based, Hepatocyte
[23] = Metabolic stability in monkey hepatocytes assessed as half life; type: ADME, cell-based, Macaca mulatta, Hepatocyte; conditions: rhesus monkey
[24] = Metabolic stability in dog hepatocytes assessed as half life; type: ADME, cell-based, Canis lupus familiaris, Hepatocyte
[25] = Metabolic stability in rat hepatocytes assessed as half life; type: ADME, cell-based, Hepatocyte
[26] = Metabolic stability in mouse hepatocytes assessed as half life; type: ADME, cell-based, Hepatocyte
Cytochrome P450 3A4 [27] = target: T1, Cytochrome P450 3A4 (Homo sapiens, UniProt P08684); test: Inhibition of CYP3A4 (unknown origin); type: ADME
T1 sequence (P08684 whole entry): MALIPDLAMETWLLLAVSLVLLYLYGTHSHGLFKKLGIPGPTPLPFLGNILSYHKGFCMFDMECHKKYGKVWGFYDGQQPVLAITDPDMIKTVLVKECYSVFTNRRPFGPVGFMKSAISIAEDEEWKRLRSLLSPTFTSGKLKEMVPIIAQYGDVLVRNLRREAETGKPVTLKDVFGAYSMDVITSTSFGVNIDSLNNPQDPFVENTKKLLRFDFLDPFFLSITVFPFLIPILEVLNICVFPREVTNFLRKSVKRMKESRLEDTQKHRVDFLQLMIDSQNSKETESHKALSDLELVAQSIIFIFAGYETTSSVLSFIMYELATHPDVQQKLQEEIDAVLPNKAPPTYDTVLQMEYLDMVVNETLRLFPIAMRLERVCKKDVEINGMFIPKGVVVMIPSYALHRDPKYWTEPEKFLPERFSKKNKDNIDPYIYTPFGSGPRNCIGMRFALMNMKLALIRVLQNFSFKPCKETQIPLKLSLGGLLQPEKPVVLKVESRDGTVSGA

Cytochrome P450 2D6 [28] = target: T2, Cytochrome P450 2D6 (Homo sapiens, UniProt P10635); test: Inhibition of CYP2D6 (unknown origin); type: ADME
T2 sequence (P10635 whole entry): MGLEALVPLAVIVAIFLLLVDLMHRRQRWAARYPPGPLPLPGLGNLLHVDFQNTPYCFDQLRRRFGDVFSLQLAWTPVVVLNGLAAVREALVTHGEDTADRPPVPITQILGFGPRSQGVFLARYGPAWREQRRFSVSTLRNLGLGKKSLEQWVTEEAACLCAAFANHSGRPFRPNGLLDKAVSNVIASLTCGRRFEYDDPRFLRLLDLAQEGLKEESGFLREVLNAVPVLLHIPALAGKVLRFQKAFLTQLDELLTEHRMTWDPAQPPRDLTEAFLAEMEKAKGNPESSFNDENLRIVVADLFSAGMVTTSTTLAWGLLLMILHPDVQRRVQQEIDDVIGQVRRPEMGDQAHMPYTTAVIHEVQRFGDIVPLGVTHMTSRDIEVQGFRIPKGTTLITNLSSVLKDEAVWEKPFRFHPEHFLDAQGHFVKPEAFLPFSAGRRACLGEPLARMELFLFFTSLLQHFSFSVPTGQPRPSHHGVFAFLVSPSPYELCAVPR

Cytochrome P450 2C19 [29] = target: T3, Cytochrome P450 2C19 (Homo sapiens, UniProt P33261); test: Inhibition of CYP2C19 (unknown origin); type: ADME
T3 sequence (P33261 whole entry): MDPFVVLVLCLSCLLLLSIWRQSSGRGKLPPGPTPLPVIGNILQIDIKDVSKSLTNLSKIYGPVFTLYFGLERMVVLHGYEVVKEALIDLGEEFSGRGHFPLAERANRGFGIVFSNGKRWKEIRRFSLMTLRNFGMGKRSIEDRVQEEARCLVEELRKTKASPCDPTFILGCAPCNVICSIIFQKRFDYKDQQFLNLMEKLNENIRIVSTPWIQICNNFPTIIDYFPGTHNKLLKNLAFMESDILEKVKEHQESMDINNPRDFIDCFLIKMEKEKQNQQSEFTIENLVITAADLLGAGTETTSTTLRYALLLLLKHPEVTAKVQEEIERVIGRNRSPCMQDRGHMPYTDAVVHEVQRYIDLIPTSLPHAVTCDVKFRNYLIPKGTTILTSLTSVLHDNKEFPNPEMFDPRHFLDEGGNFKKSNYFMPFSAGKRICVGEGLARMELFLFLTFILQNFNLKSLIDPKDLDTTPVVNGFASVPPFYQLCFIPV

Cytochrome P450 2C9 [30] = target: T4, Cytochrome P450 2C9 (Homo sapiens, UniProt P11712); test: Inhibition of CYP2C9 (unknown origin); type: ADME
T4 sequence (P11712 whole entry): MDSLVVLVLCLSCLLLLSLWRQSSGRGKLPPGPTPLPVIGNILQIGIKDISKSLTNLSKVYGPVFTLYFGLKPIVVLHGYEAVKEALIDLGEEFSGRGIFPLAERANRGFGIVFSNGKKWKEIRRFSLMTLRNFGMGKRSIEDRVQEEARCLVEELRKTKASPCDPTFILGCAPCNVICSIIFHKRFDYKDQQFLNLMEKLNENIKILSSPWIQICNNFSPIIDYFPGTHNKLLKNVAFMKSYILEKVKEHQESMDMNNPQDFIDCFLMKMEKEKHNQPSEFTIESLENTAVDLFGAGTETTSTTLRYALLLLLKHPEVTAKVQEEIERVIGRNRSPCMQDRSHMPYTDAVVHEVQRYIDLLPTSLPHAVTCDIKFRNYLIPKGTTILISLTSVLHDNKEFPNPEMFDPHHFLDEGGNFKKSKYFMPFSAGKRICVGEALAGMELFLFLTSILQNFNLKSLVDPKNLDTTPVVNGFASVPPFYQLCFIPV

Cytochrome P450 2C8 [31] = target: T5, Cytochrome P450 2C8 (Homo sapiens, UniProt P10632); test: Inhibition of CYP2C8 (unknown origin); type: ADME
T5 sequence (P10632 whole entry): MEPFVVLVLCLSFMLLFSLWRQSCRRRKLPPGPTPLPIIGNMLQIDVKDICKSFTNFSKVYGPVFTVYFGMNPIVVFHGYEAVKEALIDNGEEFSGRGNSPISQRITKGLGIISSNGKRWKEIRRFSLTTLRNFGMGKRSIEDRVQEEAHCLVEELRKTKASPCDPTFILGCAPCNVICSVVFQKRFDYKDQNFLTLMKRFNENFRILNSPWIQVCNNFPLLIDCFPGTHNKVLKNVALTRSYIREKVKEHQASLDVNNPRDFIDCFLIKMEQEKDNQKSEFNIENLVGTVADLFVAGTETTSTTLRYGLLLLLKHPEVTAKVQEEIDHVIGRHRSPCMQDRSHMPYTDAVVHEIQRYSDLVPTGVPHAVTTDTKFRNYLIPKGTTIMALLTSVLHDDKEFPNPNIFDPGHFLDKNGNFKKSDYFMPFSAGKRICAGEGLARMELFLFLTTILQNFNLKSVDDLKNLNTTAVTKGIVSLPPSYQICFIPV

Cytochrome P450 2B6 = target: T6, Cytochrome P450 2B6 (Homo sapiens, UniProt P20813); test: Inhibition of CYP2B6 (unknown origin); type: ADME
T6 sequence (P20813 whole entry): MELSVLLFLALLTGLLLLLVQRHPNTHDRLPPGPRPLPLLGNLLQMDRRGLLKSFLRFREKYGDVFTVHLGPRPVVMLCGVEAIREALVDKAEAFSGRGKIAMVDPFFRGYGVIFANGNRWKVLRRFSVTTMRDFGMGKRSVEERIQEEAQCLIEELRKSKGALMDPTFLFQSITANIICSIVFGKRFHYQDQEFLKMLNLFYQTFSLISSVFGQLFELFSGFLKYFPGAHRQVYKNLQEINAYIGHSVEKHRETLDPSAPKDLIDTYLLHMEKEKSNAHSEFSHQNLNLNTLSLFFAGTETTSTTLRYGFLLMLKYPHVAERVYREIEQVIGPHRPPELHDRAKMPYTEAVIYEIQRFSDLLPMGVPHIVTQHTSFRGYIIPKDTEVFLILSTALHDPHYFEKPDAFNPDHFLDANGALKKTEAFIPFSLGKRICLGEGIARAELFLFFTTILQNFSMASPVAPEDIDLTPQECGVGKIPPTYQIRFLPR

Cytochrome P450 1A2 [32] = target: T7, Cytochrome P450 1A2 (Homo sapiens, UniProt P05177); test: Inhibition of CYP1A2 (unknown origin); type: ADME
T7 sequence (P05177 whole entry): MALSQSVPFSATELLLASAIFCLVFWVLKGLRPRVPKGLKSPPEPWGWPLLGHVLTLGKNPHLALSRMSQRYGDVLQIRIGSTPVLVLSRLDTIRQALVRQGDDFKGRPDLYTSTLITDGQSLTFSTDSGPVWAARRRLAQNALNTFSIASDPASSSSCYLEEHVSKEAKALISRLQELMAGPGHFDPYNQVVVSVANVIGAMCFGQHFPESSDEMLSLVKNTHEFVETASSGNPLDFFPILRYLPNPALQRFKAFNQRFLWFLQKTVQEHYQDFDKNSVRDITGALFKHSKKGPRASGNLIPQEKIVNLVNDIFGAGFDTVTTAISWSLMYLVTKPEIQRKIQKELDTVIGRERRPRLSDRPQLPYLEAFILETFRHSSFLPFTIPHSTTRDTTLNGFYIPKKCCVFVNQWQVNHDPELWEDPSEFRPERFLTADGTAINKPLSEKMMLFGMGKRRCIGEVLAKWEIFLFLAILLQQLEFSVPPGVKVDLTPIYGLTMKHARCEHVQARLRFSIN

Cytochrome P450 3A4 [33] = target: T1, Cytochrome P450 3A4; test: Time dependent inhibition of CYP3A4 (unknown origin); type: ADME
Cytochrome P450 2C9 [34] = target: T4, Cytochrome P450 2C9; test: Time dependent inhibition of CYP2C9 (unknown origin); type: ADME
Cytochrome P450 2C19 [35] = target: T3, Cytochrome P450 2C19; test: Time dependent inhibition of CYP2C19 (unknown origin); type: ADME
Cytochrome P450 2D6 [36] = target: T2, Cytochrome P450 2D6; test: Time dependent inhibition of CYP2D6 (unknown origin); type: ADME
Cytochrome P450 2C8 [37] = target: T5, Cytochrome P450 2C8; test: Time dependent inhibition of CYP2C8 (unknown origin); type: ADME
Cytochrome P450 1A2 [38] = target: T7, Cytochrome P450 1A2; test: Time dependent inhibition of CYP1A2 (unknown origin); type: ADME
Cytochrome P450 3A4 [39] = target: T1, Cytochrome P450 3A4; test: Induction of CYP3A4 (unknown origin); type: ADME
SNU-16 = test: Antitumor activity against human SNU-16 cells xenografted in iv dosed mouse assessed as tumor growth inhibition; type: functional, organism-based; conditions: dose 5-15 mg/kg
[40] = Volume of distribution in Sprague-Dawley rat at 4 mg/kg, iv; type: ADME, organism-based; conditions: in vivo
[41] = Volume of distribution in Beagle dog at 1 mg/kg, iv; type: ADME, organism-based, Canis lupus familiaris; conditions: in vivo
[42] = Clearance in Sprague-Dawley rat at 4 mg/kg, iv; type: ADME, organism-based; conditions: in vivo
[43] = Clearance in Beagle dog at 1 mg/kg, iv; type: ADME, organism-based, Canis lupus familiaris; conditions: in vivo
[44] = Half life in Sprague-Dawley rat at 4 mg/kg, iv; type: ADME, organism-based; conditions: in vivo
[45] = Half life in Beagle dog at 1 mg/kg, iv; type: ADME, organism-based, Canis lupus familiaris; conditions: in vivo
[46] = AUC (0 to 24 hrs) in Sprague-Dawley rat at 4 mg/kg, iv; type: ADME, organism-based; conditions: in vivo
[47] = AUC (0 to 24 hrs) in Beagle dog at 1 mg/kg, iv; type: ADME, organism-based, Canis lupus familiaris; conditions: in vivo
[48] = target: Voltage-gated inwardly rectifying potassium channel KCNH2 (Homo sapiens, UniProt Q12809); test: Inhibition of hERG upto 30 uM; type: toxicity
Voltage-gated inwardly rectifying potassium channel KCNH2, sequence (Q12809 whole entry): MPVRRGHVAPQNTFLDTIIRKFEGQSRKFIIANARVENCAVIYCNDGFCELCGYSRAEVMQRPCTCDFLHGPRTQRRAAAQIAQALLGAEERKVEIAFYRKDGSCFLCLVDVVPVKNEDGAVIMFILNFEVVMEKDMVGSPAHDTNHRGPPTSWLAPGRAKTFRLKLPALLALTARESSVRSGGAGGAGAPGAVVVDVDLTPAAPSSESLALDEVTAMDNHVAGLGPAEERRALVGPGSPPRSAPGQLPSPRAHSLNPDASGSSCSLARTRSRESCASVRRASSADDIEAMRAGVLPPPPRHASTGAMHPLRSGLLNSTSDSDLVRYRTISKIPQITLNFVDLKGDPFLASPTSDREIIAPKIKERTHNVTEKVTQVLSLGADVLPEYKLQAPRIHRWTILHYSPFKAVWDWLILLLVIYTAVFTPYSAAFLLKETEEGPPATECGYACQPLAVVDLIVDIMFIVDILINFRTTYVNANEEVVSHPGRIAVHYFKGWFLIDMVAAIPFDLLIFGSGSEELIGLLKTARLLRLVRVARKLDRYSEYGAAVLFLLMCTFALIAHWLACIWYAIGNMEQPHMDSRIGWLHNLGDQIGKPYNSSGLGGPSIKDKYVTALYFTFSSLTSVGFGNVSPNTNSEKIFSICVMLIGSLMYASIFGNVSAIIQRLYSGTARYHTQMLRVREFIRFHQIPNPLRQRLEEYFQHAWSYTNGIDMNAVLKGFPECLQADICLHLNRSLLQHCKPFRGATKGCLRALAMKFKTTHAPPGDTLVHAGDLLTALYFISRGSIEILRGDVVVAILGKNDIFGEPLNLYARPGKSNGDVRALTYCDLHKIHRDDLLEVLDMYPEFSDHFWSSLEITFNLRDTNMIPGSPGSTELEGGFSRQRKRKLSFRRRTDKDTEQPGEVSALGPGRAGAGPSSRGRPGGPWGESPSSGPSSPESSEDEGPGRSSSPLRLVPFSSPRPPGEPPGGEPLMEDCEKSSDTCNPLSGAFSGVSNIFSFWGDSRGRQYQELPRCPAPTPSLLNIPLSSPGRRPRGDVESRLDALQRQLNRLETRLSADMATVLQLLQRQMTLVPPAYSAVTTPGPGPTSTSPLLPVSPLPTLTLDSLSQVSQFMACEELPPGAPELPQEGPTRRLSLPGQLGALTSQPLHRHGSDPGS

SMILES: CN1CCC(c2cc3c(-c4cnn(CC5CC5)c4)c(Cl)cnc3[nH]2)CC1
Ratio IC50 [5]: 35.9
Ratio IC50 [6]: 11.2
IC50 (MV4-11 [7]): 35.7 nM

SMILES: CC(C)N1CCC(c2cc3c(-c4cnn(CC5CC5)c4)c(Cl)cnc3[nH]2)CC1
Ratio IC50 [5]: 73.3
Ratio IC50 [6]: 32.4
IC50 (MV4-11 [7]): 94.8 nM

SMILES: Cn1cc(-c2c(Cl)cnc3[nH]c(C4CCNCC4)cc23)cn1
IC50 [8]: 428 nM
IC50 [9]: 267 nM
IC50 [10]: 5.9 nM
Ratio IC50 [5]: 72.5
Ratio IC50 [6]: 45.2
IC50 (MV4-11 [7]): 53.4 nM
solubility [11]: 1500 µg/mL (≈ 4.75 mM)
Vd [1]: 10.2 L/kg
clearance [2]: 115 mL/min/kg
half-life [3]: 88.2 min
AUC(0-t) [4]: 0.916 µM·h
inhibition in vivo at 10 mg/kg (MV4-11 [12]): 80%
Activity [13]: Non-toxic
Activity (MV4-11 [14]): Dose-dependent-effect
Activity (MV4-11 [15]): Active
Activity (MV4-11 [16]): Active
Activity (MV4-11 [17]): Time-dependent-effect
fraction unbound [18]: 0.711
Papp A→B [19]: 0.82 ×10⁻⁶ cm/s
Papp B→A [20]: 13.9 ×10⁻⁶ cm/s
efflux ratio [21]: 17
half-life [22]: > 280 min
half-life [23]: 264 min
half-life [24]: > 280 min
half-life [25]: 222 min
half-life [26]: 81.1 min
IC50 (Cytochrome P450 3A4 [27]): > 100 µM
IC50 (Cytochrome P450 2D6 [28]): > 100 µM
IC50 (Cytochrome P450 2C19 [29]): 96.2 µM
IC50 (Cytochrome P450 2C9 [30]): > 100 µM
IC50 (Cytochrome P450 2C8 [31]): > 100 µM
IC50 (Cytochrome P450 2B6): > 100 µM
IC50 (Cytochrome P450 1A2 [32]): 44.7 µM
TDI (Cytochrome P450 3A4 [33]): Not_active
TDI (Cytochrome P450 2C9 [34]): Not_active
TDI (Cytochrome P450 2C19 [35]): Not_active
TDI (Cytochrome P450 2D6 [36]): Not_active
TDI (Cytochrome P450 2C8 [37]): Not_active
TDI (Cytochrome P450 1A2 [38]): Not_active
Activity (Cytochrome P450 3A4 [39]): Not_active
TGI (SNU-16): Dose-dependent-effect; Partial Response Is Observed In 2/8 Mouse At 5 Mg/Kg Group, Partial Response Observed In 6/8 Mouse At 10 Mg/Kg And Partial Response Is Observed In 7/8 Mouse At 15 Mg/Kg Dose Group.
Vd [40]: 11.2 L/kg
Vd [41]: 7.62 L/kg
clearance [42]: 52 mL/min/kg
clearance [43]: 29.1 mL/min/kg
half-life [44]: 192 min
half-life [45]: 238 min
AUC(0-t) [46]: 1250 ng·h/mL
AUC(0-t) [47]: 568 ng·h/mL
inhibition (INH) [48]: Not_active

Results, then the compound that gave them:

Vd [1]: 0.52 L/kg
clearance [2]: 78.1 mL/min/kg
half-life [3]: 6 min
AUC(0-t) [4]: 0.992 µM·h
SMILES: CC(=O)N[C@@H]1CCC[C@H](C(=O)Nc2cc(-c3cnn4c3CC(C)(C)C4)c(Cl)cn2)C1 [ZEMIRCICLIB]

Ratio IC50 [6]: 35.5
IC50 (MV4-11 [7]): 464 nM
SMILES: Clc1cnc2[nH]c(C3CCNCC3)nc2c1-c1cnn(CC2CC2)c1
